The record followed here is patent EP1081144A2, “Process for making 5-lipoxygenase inhibitors having varied heterocyclic ring systems” (Pfizer Products Inc., priority 1999, dated 2001).

This data set in a line: Solubility of the reaction product in acetic acid and in acetic acid/water. The settings on record: organic solvent or mixture. The format is physicochemical. On the procedure:
The reaction mixture was cooled to 22°C and granulated for 1 hour. The resulting slurry was then vacuum filtered and the filter cake was washed twice with water (100 ml). The filter cake (75 g) was placed in a 50°C vacuum drier with a nitrogen bleed, after which 23.04 g of solid product were obtained for a yield of 74.0%.

Values after ≈ are worked out from the molar mass of the structure shown.

Consider `NC(=O)C1(c2cccc(Sc3ccc(F)cc3)c2)CCOCC1` [Example 3, tetrahydro-4-[3-(4-fluorophenyl)thio]phenyl-2H-pyran-4-carboxamide], for which the solubility runs as follows: (in a 2:1 mixture of acetic acid and water) about 4.5 mg/mL (≈ 13.6 mM); (in acetic acid at room temperature) about 62 mg/mL (≈ 187 mM).

The solubility is how much of the substance goes into solution per volume.
